Where two headings read alike, the source gives them in different places.
Experiment: Bidirectional Caco-2 permeability assay
Assay type: in vitro ADME
Settings: human
Experimental: The bidirectional permeability of compounds across the Caco-2 cell monolayer was assessed. The Caco-2 model is a widely used in vitro model for small intestinal absorption and potential for efflux. Cell culture. Caco-2 cells were grown in DMEM supplemented with 10% fetal bovine serum (FBS), 1% Penicillin-Streptomycin and 1% MEMNEAA. The cells were incubated at 37° C., 5% CO2/95% air and saturated humidity. After reaching 80-90% confluency, the cells were gently detached with trypsin. Cells at passage 39 were seeded on the 24-well BD insert system at the density of 8×10^4 cells/cm^2 and cultured for 19 days with medium changed every 2-3 days. Measure the transepithelial electrical resistance (TEER) value of each well. The wells can be used only when their TEER values are greater than 600 Ohms/cm^2.
Transport assay. After removing the cell culture medium from the 24-well insert plate, the cells were rinsed with warm transport buffer. Appropriate dosing and receiving solutions were applied to the donor and receiver chambers to initiate the transport assay in apical to basolateral (A to B) or basolateral to apical (B to A) directions (500 and 1300 μL for apical and basolateral wells, respectively). Duplicate wells in each direction were used for the test compound and control compound. The plate was incubated in CO2 incubator at 37° C., with 5% CO2/95% air and saturated humidity without shaking. The sample after 10-minute incubation was used as the To sample, and the sample after 90-minute incubation was used as the T90 sample. To and T90 samples were collected from the donor and receiver side of each well at the designed timepoint, mixed with the transport buffer and acetonitrile/MeOH (1:1, v/v) and the internal standard for LC/MS/MS analysis. All samples were vortexed and centrifuged at 4000 rpm at 4° C. for 15 minutes, diluted with pure water and stored at 4° C. before bioanalysis by LC/MS/MS.
Sample analysis. The concentrations of test compounds and control compounds in Caco-2 cells were quantitatively determined by LC/MS/MS method after protein precipitation.
Calculations. The apparent permeability (Papp, cm/s), efflux ratio (ER) and recovery parameters were calculated for Caco-2 drug transport assay using the following equations: […]
where VR is the solution volume in the receiver chamber (0.4 mL on the apical side, 1.2 mL on the basolateral side); Area is the surface area for the insert membrane, i.e., 0.3 cm^2 for the area of the monolayer; Time is incubation time, expressed in seconds, i. e., 5400 s (90 min) for the current experiment; Co is the initial concentration of test compound or peak area ratio of control compounds in the donor chamber (M); VD is the volume in the donor chambers (0.4 mL on the apical side, 1.2 mL on the basolateral side); CD and CR are the final concentrations of test compounds or peak area ratio of control compounds in donor and receiver chambers, respectively.
Compounds with Papp<1.0 are classified as low permeability, Papp between 1-10 are classified as medium permeability, and Papp>10 are classified as high permeability. An efflux ratio (ER)>2 indicates the compounds are potential substrates for intestinal cell efflux transporters.

## CC(=O)OCOC(=O)Nc1ncnn2c([C@]3(C#N)O[C@H](COC(=O)Cc4ccccc4)[C@@H](OC(=O)[C@@H](N)C(C)(C)C)[C@H]3O)ccc12 [Compound 30, (2R,3S,4R,5R)-5-(4-(((acetoxymethoxy)carbonyl)amino)pyrrolo[2,1-f][1,2,4]triazin-7-yl)-5-cyano-4-hydroxy-2-((2-phenylacetoxy)methyl)tetrahydrofuran-3-yl (S)-2-amino-3,3-dimethylbutanoate]
Caco-2 monolayer, apical to basolateral, 90-minute incubation, read-out: Papp, A-B
  Papp A→B at 90 min: 0.09 ×10⁻⁶ cm/s
Caco-2 monolayer, basolateral to apical, 90-minute incubation, read-out: Papp, B-A
  Papp B→A at 90 min: 3.11 ×10⁻⁶ cm/s
Caco-2 monolayer, ER>2 indicates potential efflux substrate, read-out: ER (efflux ratio)
  efflux ratio at 90 min: 34.6

## CC(C)(C)[C@H](N)C(=O)OC[C@H]1O[C@@](C#N)(c2ccc3c(N)ncnn23)[C@H](O)[C@@H]1OC(=O)CC1CCCCC1 [Compound 32, ((2R,3S,4R,5R)-5-(4-aminopyrrolo[2,1-f][1,2,4]triazin-7-yl)-5-cyano-3-(2-cyclohexylacetoxy)-4-hydroxytetrahydrofuran-2-yl)methyl (S)-2-amino-3,3-dimethylbutanoate]
Caco-2
  Papp A→B at 90 min: 15.4 ×10⁻⁶ cm/s
  Papp B→A at 90 min: 20.7 ×10⁻⁶ cm/s
  efflux ratio at 90 min: 1.34

## CC(=O)Nc1ncnn2c([C@]3(C#N)O[C@H](COC(=O)[C@@H](N)C(C)(C)C)[C@@H](OC(=O)CC4CCCCC4)[C@H]3O)ccc12 [Compound 33, ((2R,3S,4R,5R)-5-(4-acetamidopyrrolo[2,1-f][1,2,4]triazin-7-yl)-5-cyano-3-(2-cyclohexylacetoxy)-4-hydroxytetrahydrofuran-2-yl)methyl (S)-2-amino-3,3-dimethylbutanoate]
Caco-2
  Papp A→B at 90 min: 24.4 ×10⁻⁶ cm/s

## CC(=O)OCOC(=O)Nc1ncnn2c([C@]3(C#N)O[C@H](COC(=O)[C@@H](N)C(C)(C)C)[C@@H](OC(=O)CC4CCCCC4)[C@H]3O)ccc12 [Compound 36, ((2R,3S,4R,5R)-5-(4-(((acetoxymethoxy)carbonyl)amino)pyrrolo[2,1-f][1,2,4]triazin-7-yl)-5-cyano-3-(2-cyclohexylacetoxy)-4-hydroxytetrahydrofuran-2-yl)methyl (S)-2-amino-3,3-dimethylbutanoate]
Caco-2
  Papp A→B at 90 min: 0.93 ×10⁻⁶ cm/s
  Papp B→A at 90 min: 1.15 ×10⁻⁶ cm/s
  efflux ratio at 90 min: 1.24

## CC(C)(C)[C@H](N)C(=O)OC[C@H]1O[C@@](C#N)(c2ccc3c(NC(=O)CC4CCCCC4)ncnn23)[C@H](O)[C@@H]1O [Compound 39, ((2R,3S,4R,5R)-5-cyano-5-(4-(2-cyclohexylacetamido)pyrrolo[2,1-f][1,2,4]triazin-7-yl)-3,4-dihydroxytetrahydrofuran-2-yl)methyl (S)-2-amino-3,3-dimethylbutanoate]
Caco-2
  Papp A→B at 90 min: 0.72 ×10⁻⁶ cm/s
  Papp B→A at 90 min: 16.9 ×10⁻⁶ cm/s
  efflux ratio at 90 min: 23.4

## CCC(=O)O[C@H]1[C@@H](O)[C@](C#N)(c2ccc3c(NC(=O)OCOC(=O)C(C)(C)C)ncnn23)O[C@@H]1COC(=O)[C@@H](N)C(C)(C)C [Compound 40, ((2R,3S,4R,5R)-5-cyano-4-hydroxy-5-(4-((((pivaloyloxy)methoxy)carbonyl)amino)pyrrolo[2,1-f][1,2,4]triazin-7-yl)-3-(propionyloxy)tetrahydrofuran-2-yl)methyl (S)-2-amino-3,3-dimethylbutanoate]
Caco-2
  Papp A→B at 90 min: 0.13 ×10⁻⁶ cm/s
  Papp B→A at 90 min: 4.5 ×10⁻⁶ cm/s
  efflux ratio at 90 min: 34.4

## CCCCCCOC(=O)Nc1ncnn2c([C@]3(C#N)O[C@H](COC(=O)[C@@H](N)C(C)(C)C)[C@@H](O)[C@H]3O)ccc12 [Compound 41, ((2R,3S,4R,5R)-5-cyano-5-(4-(((hexyloxy)carbonyl)amino)pyrrolo[2,1-f][1,2,4]triazin-7-yl)-3,4-dihydroxytetrahydrofuran-2-yl)methyl (S)-2-amino-3,3-dimethylbutanoate]
Caco-2
  Papp A→B at 90 min: 1.41 ×10⁻⁶ cm/s
  Papp B→A at 90 min: 14.6 ×10⁻⁶ cm/s
  efflux ratio at 90 min: 10.4

## CCCCCCOC(=O)Nc1ncnn2c([C@]3(C#N)O[C@H](COC(=O)[C@@H](N)C(C)(C)C)[C@@H](OC(=O)CC)[C@H]3O)ccc12 [Compound 42, ((2R,3S,4R,5R)-5-cyano-5-(4-(((hexyloxy)carbonyl)amino)pyrrolo[2,1-f][1,2,4]triazin-7-yl)-4-hydroxy-3-(propionyloxy)tetrahydrofuran-2-yl)methyl (S)-2-amino-3,3-dimethylbutanoate]
Caco-2
  Papp A→B at 90 min: 4.24 ×10⁻⁶ cm/s
  Papp B→A at 90 min: 3.97 ×10⁻⁶ cm/s
  efflux ratio at 90 min: 0.94

## CCC(=O)O[C@H]1[C@@H](O)[C@](C#N)(c2ccc3c(NC(=O)OCOC(C)=O)ncnn23)O[C@@H]1COC(=O)[C@@H](N)C(C)(C)C [Compound 43, ((2R,3S,4R,5R)-5-(4-(((acetoxymethoxy)carbonyl)amino)pyrrolo[2,1-f][1,2,4]triazin-7-yl)-5-cyano-4-hydroxy-3-(propionyloxy)tetrahydrofuran-2-yl)methyl (S)-2-amino-3,3-dimethylbutanoate]
Caco-2
  Papp A→B at 90 min: 1.49 ×10⁻⁶ cm/s
  Papp B→A at 90 min: 1.02 ×10⁻⁶ cm/s
  efflux ratio at 90 min: 0.69

## CC(=O)OCOC(=O)Nc1ncnn2c([C@]3(C#N)O[C@H](COC(=O)CC4CCCCC4)[C@@H](OC(=O)[C@@H](N)C(C)(C)C)[C@H]3O)ccc12 [Compound 46, (2R,3S,4R,5R)-5-(4-(((acetoxymethoxy)carbonyl)amino)pyrrolo[2,1-f][1,2,4]triazin-7-yl)-5-cyano-2-((2-cyclohexylacetoxy)methyl)-4-hydroxytetrahydrofuran-3-yl (S)-2-amino-3,3-dimethylbutanoate]
Caco-2
  Papp A→B at 90 min: 1.45 ×10⁻⁶ cm/s
  Papp B→A at 90 min: 0.79 ×10⁻⁶ cm/s
  efflux ratio at 90 min: 0.54

## CCCCC(=O)Nc1ncnn2c([C@]3(C#N)O[C@H](COC(=O)CC4CCC4)[C@@H](OC(=O)[C@@H](N)C(C)(C)C)[C@H]3O)ccc12 [Compound 47, (2R,3S,4R,5R)-5-cyano-2-((2-cyclobutylacetoxy)methyl)-4-hydroxy-5-(4-pentanamidopyrrolo[2,1-f][1,2,4]triazin-7-yl)tetrahydrofuran-3-yl (S)-2-amino-3,3-dimethylbutanoate]
Caco-2
  Papp A→B at 90 min: 4.57 ×10⁻⁶ cm/s
  Papp B→A at 90 min: 12.2 ×10⁻⁶ cm/s
  efflux ratio at 90 min: 2.68

## CCCCCC(=O)Nc1ncnn2c([C@]3(C#N)O[C@H](COC(=O)CC4CCC4)[C@@H](OC(=O)[C@@H](N)C(C)(C)C)[C@H]3O)ccc12 [Compound 48, (2R,3S,4R,5R)-5-cyano-2-((2-cyclobutylacetoxy)methyl)-5-(4-hexanamidopyrrolo[2,1-f][1,2,4]triazin-7-yl)-4-hydroxytetrahydrofuran-3-yl (S)-2-amino-3,3-dimethylbutanoate]
Caco-2
  Papp A→B at 90 min: 2.02 ×10⁻⁶ cm/s
  Papp B→A at 90 min: 4.72 ×10⁻⁶ cm/s
  efflux ratio at 90 min: 2.34

## CCOC(C)(C)C(=O)Nc1ncnn2c([C@]3(C#N)O[C@H](COC(=O)CC4CCC4)[C@@H](OC(=O)[C@@H](N)C(C)(C)C)[C@H]3O)ccc12 [Compound 49, (2R,3S,4R,5R)-5-cyano-2-((2-cyclobutylacetoxy)methyl)-5-(4-(2-ethoxy-2-methylpropanamido)pyrrolo[2,1-f][1,2,4]triazin-7-yl)-4-hydroxytetrahydrofuran-3-yl (S)-2-amino-3,3-dimethylbutanoate]
Caco-2
  Papp A→B at 90 min: 6.24 ×10⁻⁶ cm/s
  Papp B→A at 90 min: 5.67 ×10⁻⁶ cm/s
  efflux ratio at 90 min: 0.91

## CCC(CC)C(=O)Nc1ncnn2c([C@]3(C#N)O[C@H](COC(=O)CC4CCC4)[C@@H](OC(=O)[C@@H](N)C(C)(C)C)[C@H]3O)ccc12 [Compound 50, (2R,3S,4R,5R)-5-cyano-2-((2-cyclobutylacetoxy)methyl)-5-(4-(2-ethylbutanamido)pyrrolo[2,1-f][1,2,4]triazin-7-yl)-4-hydroxytetrahydrofuran-3-yl (S)-2-amino-3,3-dimethylbutanoate]
Caco-2
  Papp A→B at 90 min: 8.66 ×10⁻⁶ cm/s
  Papp B→A at 90 min: 8.25 ×10⁻⁶ cm/s
  efflux ratio at 90 min: 0.95

## CCCCC(=O)Nc1ncnn2c([C@]3(C#N)O[C@H](COC(=O)CC4CCCC4)[C@@H](OC(=O)[C@@H](N)C(C)(C)C)[C@H]3O)ccc12 [Compound 54, (2R,3S,4R,5R)-5-cyano-2-((2-cyclopentylacetoxy)methyl)-4-hydroxy-5-(4-pentanamidopyrrolo[2,1-f][1,2,4]triazin-7-yl)tetrahydrofuran-3-yl (S)-2-amino-3,3-dimethylbutanoate]
Caco-2
  Papp A→B at 90 min: 3.41 ×10⁻⁶ cm/s
  Papp B→A at 90 min: 5.47 ×10⁻⁶ cm/s
  efflux ratio at 90 min: 1.6

— patent US20250228882A1, “ORALLY-BIOAVAILABLE NUCLEOSIDE ANALOGS” (Venatorx Pharmaceuticals, Inc., priority 2022, published 2025)
